Measured values published in patent US8338565B2, “Macrocyclic compounds for inhibition of tumor necrosis factor alpha” (Ensemble Therapeutics Corporation, priority 2008, dated 2012).
Like-named read-outs stand apart in the source and are kept apart here. Numbered stars: 1 amine (or outer) side, 2 acyl side, 3 side chain; on linkers, the order of the positions; unused ones are H or OH. Bridge positions count the residues as written; N and C are the ends. Square brackets hold non-standard residues; d marks the D form. Peptide text beside a SMILES is read from it. * marks the point of attachment. Tartaroyl(2R,3R-(OAc)2) = CC(=O)O[C@@H](C(=O)[*:1])[C@@H](OC(C)=O)C(=O)[*:2]; Phe(4-COOH) = N[C@@H](Cc1ccc(C(=O)O)cc1)C(=O)O; Bip = N[C@@H](Cc1ccc(-c2ccccc2)cc1)C(=O)O; dBip = N[C@H](Cc1ccc(-c2ccccc2)cc1)C(=O)O; dPhe(4-NH2) = Nc1ccc(C[C@@H](N)C(=O)O)cc1; Nip(3R) = O=C([C@@H]1CCCN([*:1])C1)[*:2]; Phe(4-Br) = N[C@@H](Cc1ccc(Br)cc1)C(=O)O; Phe(4-NH2) = Nc1ccc(C[C@H](N)C(=O)O)cc1; d(hPhe) = N[C@H](CCc1ccccc1)C(=O)O; hPhe = N[C@@H](CCc1ccccc1)C(=O)O; 3Pal = N[C@@H](Cc1cccnc1)C(=O)O; 2Thi = N[C@@H](Cc1cccs1)C(=O)O; d2Thi = N[C@H](Cc1cccs1)C(=O)O; Suc = O=C(CCC(=O)[*:2])[*:1]; NHCH2SO3H = O=S(=O)(O)CN*; GABA = NCCCC(=O)O; βAla = NCCC(=O)O

Molecular target: T1, TNFα / TNFα receptor (TNFα R1/Fc) (Homo sapiens, UniProt P01375)
T1 construct: purchased R&D Systems
Assay: Inhibition of binding of TNFα to the TNFα receptor (plate ELISA competition)
Details: Table 2
Method in brief: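 Compound dilutions were preincubated 30 min at RT with 8.33 nM TNFα R1/Fc in PBST with 2% DMSO, then added to wells coated with 15 nM TNFα for 30 min. Bound receptor was detected with HRP anti-human Fc and TMB, read as A450.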

[1] = read-out: Activity (IC50, inhibition of TNFα binding to TNFα R1/Fc)

T1 sequence (P01375 77-233 limits assumed, species assumed): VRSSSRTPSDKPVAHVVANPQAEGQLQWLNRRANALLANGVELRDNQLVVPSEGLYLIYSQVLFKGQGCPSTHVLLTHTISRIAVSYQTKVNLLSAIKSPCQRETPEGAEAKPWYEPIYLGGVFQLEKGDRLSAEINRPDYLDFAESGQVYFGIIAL

| Structure (SMILES) | IC50 [1] [µM] | IC50 (Activity (IC50, inhibition of TNFα binding to TNFα R1/Fc)) [µM] |
| --- | --- | --- |
| CC(=O)O[C@H]1C(=O)Nc2ccc(cc2)C[C@@H](C(=O)N[C@@H](Cc2ccccc2)C(=O)O)NC(=O)[C@H](Cc2ccccc2)NC(=O)[C@@H](Cc2ccc(-c3ccccc3)cc2)NC(=O)[C@H](Cc2cccs2)NC(=O)[C@@H]1OC(C)=O [Compound 414] ([2Thi][dBip]F[Phe(4-NH2)]F-OH; linker N-4 via Tartaroyl(2R,3R-(OAc)2)) | > 100 | – |
| O=C(O)[C@H](Cc1cccnc1)NC(=O)[C@@H]1Cc2ccc(cc2)NC(=O)[C@H](O)[C@@H](O)C(=O)N[C@H](Cc2cccs2)C(=O)N[C@@H](Cc2ccc(-c3ccccc3)cc2)C(=O)N[C@H](CCc2ccccc2)C(=O)N1 [Compound 405] | > 100 | – |
| O=C1CCNc2ccc(cc2)C[C@@H](C(=O)O)NC(=O)[C@@H](Cc2ccccc2)NC(=O)[C@H](Cc2ccc(-c3ccccc3)cc2)NC(=O)[C@@H](Cc2cccs2)N1 [Compound 6] | > 100 | – |
| O=C1CCC(=O)N[C@H](CCc2ccccc2)C(=O)N[C@@H](Cc2ccc(-c3ccccc3)cc2)C(=O)N[C@H](Cc2ccccc2)C(=O)N[C@H](C(=O)N[C@@H](Cc2cccnc2)C(=O)O)Cc2ccc(cc2)N1 [Compound 403] ([d(hPhe)][Bip][dF][Phe(4-NH2)][3Pal]-OH; linker N-4 via Suc) | > 100 | – |
| O=C1CCC(=O)N[C@H](CCc2ccccc2)C(=O)N[C@@H](Cc2ccc(-c3ccccc3)cc2)C(=O)N[C@H](Cc2ccccc2)C(=O)Nc2ccc(cc2)C[C@@H](C(=O)O)N1 [Compound 550] | 30 to 100 | – |
| O=C1CCNC(=O)c2ccc(cc2)C[C@@H](C(=O)O)NC(=O)[C@@H](Cc2ccccc2)NC(=O)[C@H](Cc2ccc(-c3ccccc3)cc2)NC(=O)[C@H](CCc2ccccc2)N1 [Compound 467] ([βAla][hPhe][Bip][dF][Phe(4-COOH)]-OH; lactam N-5) | > 100 | – |
| O=C1CCC(=O)N[C@@H](Cc2cccs2)C(=O)N[C@H](Cc2ccc(-c3ccccc3)cc2)C(=O)N[C@H](Cc2ccccc2)C(=O)N[C@H](C(=O)O)Cc2ccc(cc2)N1 [Compound 494] ([2Thi][dBip][dF][Phe(4-NH2)]-OH; linker N-4 via Suc) | > 100 | – |
| O=C1CCC(=O)N[C@H](Cc2cccs2)C(=O)N[C@@H](Cc2ccc(-c3ccccc3)cc2)C(=O)N[C@H](Cc2ccc(O)cc2)C(=O)N[C@H](C(=O)O)Cc2ccc(cc2)N1 [Compound 59] ([d2Thi][Bip][dY][Phe(4-NH2)]-OH; linker N-4 via Suc) | > 100 | – |
| CC(C)(C)OC(=O)CC[C@@H]1NC(=O)[C@H](Cc2ccc(-c3ccccc3)cc2)NC(=O)[C@H](Cc2cccs2)NC(=O)COc2ccc(cc2)C[C@@H](C(=O)O)NC1=O [Compound 259] | 30 to 100 | – |
| O=C1CCC(=O)N[C@H](Cc2cccs2)C(=O)N[C@H](Cc2ccc(-c3ccccc3)cc2)C(=O)N[C@@H](Cc2ccccc2)C(=O)N[C@@H](C(=O)O)Cc2ccc(cc2)N1 [Compound 503] ([d2Thi][dBip]F[dPhe(4-NH2)]-OH; linker N-4 via Suc) | > 100 | – |
| O=C1CCC(=O)N[C@H](Cc2cccs2)C(=O)N[C@@H](Cc2ccc(-c3ccccc3)cc2)C(=O)N[C@H](Cc2ccccc2)C(=O)N[C@H](C(=O)N2CCC[C@@H](C(=O)O)C2)Cc2ccc(cc2)N1 [Compound 38] ([d2Thi][Bip][dF][Phe(4-NH2)]-{Nip(3R)}; linker N-4 via Suc) | 30 to 100 | – |
| O=C(O)[C@@H]1Cc2ccc(cc2)NC(=O)[C@H](O)[C@@H](O)C(=O)N[C@H](Cc2ccc(F)c(F)c2)C(=O)N[C@@H](Cc2ccc(-c3ccccc3)cc2)C(=O)N[C@H](Cc2ccccc2)C(=O)N1 [Compound 262] | 10 to 30 | – |
| Cc1ccc(S(=O)(=O)NCCNC(=O)[C@@H]2Cc3ccc(cc3)OCC(=O)N[C@@H](Cc3cccs3)C(=O)N[C@H](Cc3ccc(-c4ccccc4)cc3)C(=O)N[C@@H](CCc3ccccc3)C(=O)N2)cc1 [Compound 484] | > 100 | – |
| CC(=O)O[C@H]1C(=O)Nc2ccc(cc2)C[C@H](C(=O)N[C@@H](Cc2ccccc2)C(=O)O)NC(=O)[C@H](Cc2ccccc2)NC(=O)[C@@H](Cc2ccc(-c3ccccc3)cc2)NC(=O)[C@H](Cc2cccs2)NC(=O)[C@@H]1OC(C)=O [Compound 413] ([2Thi][dBip]F[dPhe(4-NH2)]F-OH; linker N-4 via Tartaroyl(2R,3R-(OAc)2)) | > 100 | – |
| O=C1COc2ccc(cc2)C[C@@H](C(=O)NCCO)NC(=O)[C@@H](CCc2ccccc2)NC(=O)[C@H](Cc2ccc(-c3ccccc3)cc2)NC(=O)[C@@H](Cc2cccs2)N1 [Compound 322] | 10 to 30 | – |
| O=C(O)CCCNC(=O)[C@@H]1Cc2ccc(cc2)NC(=O)[C@H](O)[C@@H](O)C(=O)N[C@H](Cc2cccs2)C(=O)N[C@@H](Cc2ccc(-c3ccccc3)cc2)C(=O)N[C@H](CCc2ccccc2)C(=O)N1 [Compound 402] | 10 to 30 | – |
| O=C1CCNC(=O)c2ccc(cc2)C[C@@H](C(=O)O)NC(=O)[C@@H](Cc2ccccc2)NC(=O)[C@@H](Cc2ccc(-c3ccccc3)cc2)NC(=O)[C@@H](CCc2ccccc2)N1 [Compound 469] ([βAla][d(hPhe)][dBip][dF][Phe(4-COOH)]-OH; lactam N-5) | > 100 | – |
| O=C1COc2ccc(cc2)C[C@H](C(=O)N[C@H](Cc2ccccc2)C(=O)O)NC(=O)[C@@H](CCc2ccccc2)NC(=O)[C@H](Cc2ccc(-c3ccccc3)cc2)NC(=O)[C@@H](Cc2cccs2)N1 [Compound 562] | – | < 10 |
| O=C1COc2ccc(cc2)C[C@@H](C(=O)O)NC(=O)[C@H](CCc2ccccc2)NC(=O)[C@@H](Cc2ccc(-c3ccccn3)cc2)NC(=O)[C@H](Cc2ccccn2)N1 [Compound 667] | > 100 | – |
| O=C(O)C[C@H]1NC(=O)[C@H](Cc2ccc(-c3ccccc3)cc2)NC(=O)[C@@H](Cc2cccs2)NC(=O)CCC(=O)Nc2ccc(cc2)C[C@@H](C(=O)O)NC1=O [Compound 65] ([d2Thi][Bip][dD][Phe(4-NH2)]-OH; linker N-4 via Suc) | > 100 | – |
| O=C1CCC(=O)N[C@H](Cc2cccs2)C(=O)N[C@@H](Cc2ccc(-c3ccccc3)cc2)C(=O)N[C@@H](Cc2ccccc2)C(=O)N[C@H](C(=O)O)Cc2ccc(cc2)N1 [Compound 195] ([d2Thi][Bip]F[Phe(4-NH2)]-OH; linker N-4 via Suc) | > 100 | – |
| CC(=O)O[C@H]1C(=O)Nc2ccc(cc2)C[C@H](C(=O)O)NC(=O)[C@@H](Cc2ccccc2)NC(=O)[C@H](Cc2ccc(-c3ccccc3)cc2)NC(=O)[C@@H](Cc2ccccc2)NC(=O)[C@@H]1OC(C)=O [Compound 222] ([dF][Bip][dF][dPhe(4-NH2)]-OH; linker N-4 via Tartaroyl(2R,3R-(OAc)2)) | > 100 | – |

Continued, in another order:

| IC50 [1] [µM] | Structure (SMILES) | IC50 (Activity (IC50, inhibition of TNFα binding to TNFα R1/Fc)) [µM] |
| --- | --- | --- |
| 10 to 30 | CC(=O)O[C@H]1C(=O)Nc2ccc(cc2)C[C@H](C(=O)O)NC(=O)[C@@H](CCc2ccccc2)NC(=O)[C@H](Cc2ccc(Br)cc2)NC(=O)[C@@H](Cc2ccccc2)NC(=O)[C@@H]1OC(C)=O [Compound 218] ([dF][Phe(4-Br)][d(hPhe)][dPhe(4-NH2)]-OH; linker N-4 via Tartaroyl(2R,3R-(OAc)2)) | – |
| < 10 | O=C(O)CNC(=O)[C@@H]1Cc2ccc(cc2)OCC(=O)N[C@@H](Cc2cccs2)C(=O)N[C@@H](Cc2ccc(-c3ccccc3)cc2)C(=O)N[C@@H](Cc2ccccc2)C(=O)N1 [Compound 329] | – |
| < 10 | O=C(O)CCCNC(=O)[C@@H]1Cc2ccc(cc2)C(=O)NCCC(=O)N[C@H](CCc2ccccc2)C(=O)N[C@@H](Cc2ccc(-c3ccccc3)cc2)C(=O)N[C@H](Cc2ccccc2)C(=O)N1 [Compound 421] ([βAla][d(hPhe)][Bip][dF][Phe(4-COOH)][GABA]-OH; lactam N-5) | – |
| < 10 | O=C(O)CN(Cc1ccccc1)C(=O)[C@@H]1Cc2ccc(cc2)OCC(=O)N[C@@H](Cc2cccs2)C(=O)N[C@@H](Cc2ccc(-c3ccccc3)cc2)C(=O)N[C@@H](Cc2ccccc2)C(=O)N1 [Compound 340] | – |
| < 10 | O=C1COc2ccc(cc2)C[C@@H](C(=O)O)NC(=O)[C@H](CCc2ccccc2)NC(=O)[C@@H](Cc2ccc(-c3ccccc3)cc2)NC(=O)[C@H](Cc2ccccc2)N1 [Compound 511] | – |
| < 10 | O=C1COc2ccc(cc2)C[C@@H](C(=O)N[C@@H](Cc2ccccc2)C(=O)O)NC(=O)[C@H](Cc2ccccc2)NC(=O)[C@H](Cc2ccc(-c3ccccc3)cc2)NC(=O)[C@H](Cc2cccs2)N1 [Compound 229] | – |
| < 10 | O=C1COc2ccc(cc2)C[C@H](C(=O)N[C@H](CCc2ccccc2)C(=O)O)NC(=O)[C@H](CCc2ccccc2)NC(=O)[C@@H](Cc2ccc(-c3ccccc3)cc2)NC(=O)[C@H](Cc2ccncc2)N1 [Compound 738] | – |
| 10 to 30 | N#Cc1cccc(C[C@H]2NC(=O)[C@H](O)[C@@H](O)C(=O)Nc3ccc(cc3)C[C@@H](C(=O)O)NC(=O)[C@@H](Cc3ccccc3)NC(=O)[C@H](Cc3ccc(-c4ccccc4)cc3)NC2=O)c1 [Compound 316] | – |
| < 10 | O=C1CCC(=O)N[C@H](CCc2ccccc2)C(=O)N[C@@H](Cc2ccc(-c3ccccc3)cc2)C(=O)N[C@H](Cc2ccccc2)C(=O)N[C@H](C(=O)N[C@@H](Cc2ccccc2)C(=O)NCS(=O)(=O)O)Cc2ccc(cc2)N1 [Compound 542] ([d(hPhe)][Bip][dF][Phe(4-NH2)]F-NHCH2SO3H; linker N-4 via Suc) | – |
| < 10 | O=C(O)CCNC(=O)[C@@H]1Cc2ccc(cc2)OCC(=O)N[C@@H](Cc2ccc(-c3ccccc3)cc2)C(=O)N[C@H](Cc2ccc(-c3ccccc3)cc2)C(=O)N[C@@H](CCc2ccccc2)C(=O)N1 [Compound 569] | – |
| < 10 | C[C@@H](NC(=O)[C@@H]1Cc2ccc(cc2)OCC(=O)N[C@@H](Cc2ccc(-c3ccccc3)cc2)C(=O)N[C@H](Cc2ccc(-c3ccccc3)cc2)C(=O)N[C@@H](CCc2ccccc2)C(=O)N1)C(=O)O [Compound 577] | – |
| < 10 | O=C1COc2ccc(cc2)C[C@@H](C(=O)N[C@H](CCc2ccccc2)C(=O)O)NC(=O)[C@H](Cc2ccccc2F)NC(=O)[C@@H](Cc2ccc(-c3ccccc3)cc2)NC(=O)[C@H](Cc2c[nH]c3ccccc23)N1 [Compound 741] | – |
| < 10 | O=C1COc2ccc(cc2)C[C@@H](C(=O)O)NC(=O)[C@H](CCc2ccccc2)NC(=O)[C@@H](Cc2ccc(-c3ccccc3)cc2)NC(=O)[C@H](Cc2cccnc2)N1 [Compound 662] | – |
